In brackets after ≈: the same amount, converted by molar mass. Where two headings read alike, the source gives them in different places.

Broadly, the EC50 is the midpoint of the concentration-response curve. One may read the IC50 as the concentration that gives 50% inhibition.

Series [1] deals with T1, Sa-ClpP (Staphylococcus aureus, UniProt Q2G036).
T1 construct: made in house; host or cells: E. coli BL21 (DE3)
Kind of series: ClpP activation, EnzCheck Protease Assay with Bodipy-FL casein (second described method). Type of series: biochemical, S. aureus. The protocol: Alternatively, the assay was carried out using EnzCheck Protease Assay (Molecular Probes, Catalog #E6638). The assay was performed in black 384 well, flat bottom, low volume plates (Greiner Bio-One, Monroe, N.C., catalog #784076). 10 μL of Tris.HCl buffer, pH 8.0 with 0.01% Triton X-100 was pipetted into each well using a Well-Mate (Thermo Scientific, Waltham, Mass.). 0.4 μL test compounds or controls (2% DMSO v/v) were added to each well using a Biomek FX liquid handling robot (Beckman Coulter, Indianapolis Ind.). After addition of test compounds and controls, 10 μL of master mix containing 2 μM Sa-ClpP and 2 μM substrate (Bodipy-FL labeled casein) in Tris*HCl buffer, pH 8.0 with 0.01% (v/v) Triton X-100, was pipetted into each well. All assays were performed in triplicate, under linear velocity conditions. Increase in fluorescent signal following activation of Sa-ClpP by test compounds and controls was measured over time period of 30 mins using filters with excitation at 485±15 nm and emission at 520±25 nm on a PHERAstar FS Multilabel reader (BMG, Cary, N.C.). […] Data analysis was done by measuring rate of casein degradation over time (slopes). Computed degradation rates (slopes) were normalized to positive (ADEP4) or negative (DMSO) controls. Using nonlinear regression curve fitting EC50 values and % activation were determined using the equation “log [agonist]vs. Response-variable slope (four parameters)-symmetrical” in the program Prism 6 (GraphPad Software, La Jolla, Calif. USA, www.graphpad.com).

The target of series [2] is T1, Sa-ClpP. Kind of series: ADEP displacement fluorescence polarization assay. Type of series: binding, S. aureus. The protocol: A fluorescence polarization (FP) assay was used to determine the activity of the disclosed compounds in displacing an ADEP analogue from ClpP. Briefly, the assay was performed in black 384 well, flat bottom, low volume plates (Greiner Bio-One, Monroe, N.C., catalog #784076). 20 μL of a pre-equilibrated (1 hr, room temperature) master mix (1 μM Sa-ClpP, 2% DMSO (v/v) and 50 nM FP probe in Tris*HCl, pH 8.0)) was pipetted into each well using a Well-Mate (Thermo Scientific, Waltham, Mass.). Sa-ClpP was prepared as described above for the ClpP activation assay. The FP probe was ADEP 2591 (structure shown above). The ADEP 2591 comprises a TAMRA fluorophore linked to a core based on modified ADEP 2378 via a short alkyl linker. Using pin transfer, approximately 0.4 μL (2% v/v DMSO) of each compound or control was added per well. After addition of compounds and controls, plates were allowed to incubate for an additional 120 minutes at room temperature. All assays were performed in triplicate. Polarization was monitored using an EnVision Multilabel reader (Perkin-Elmer, Waltham, Mass.) by exciting the FP probe at 530±25 nm, and monitoring fluorescence intensity of both parallel and perpendicular polarized light at 579±25 nm. Readout was in millipolarization units (mP).
Signal gain and G factors were determined in wells containing 20 μM ADEP 2378, which had been previously verified (data not shown) as containing completely unbound ADEP 2591. Data collected was normalized to values obtained from positive (20 μM ADEP 2378) or negative (DMSO) controls. Curves were fit with non-linear regression using the equation “log [inhibitor]vs. Response-variable slope (four parameters)-symmetrical” in the program Prism 6 (GraphPad Software, La Jolla, Calif. USA, www.graphpad.com). The structures for ADEP 2378 and ADEP 2591 are shown above. ADEP 2378 is (E)-N-((S)-1-(((2R,6S,8aS,14aS,20S,23aS)-2,6-dimethyl-5,8,14,19,23-pentaoxooctadecahydro-1H,5H,14H,19H-pyrido[2,1-i]dipyrrolo[2,1-c:2′,1′-1][1]oxa[4,7,10,13]tetraazacyclohexadecin-20-yl)amino)-1-oxo-3-phenylpropan-2-yl)pent-2-enamide. ADEP 2591 is 5-(3-(3-((6S,9S,11aS,17S,20aS)-6,10-dimethyl-5,8,11,16,20-pentaoxo-17-((S)-2-((E)-pent-2-enamido)-3-phenylpropanamido)hexadecahydro-1H,5H,16H-dipyrrolo[2,1-c:2′,1′-1][1]oxa[4,7,10,13]tetraazacyclohexadecin-9-yl)propyl)thioureido)-2-(6-(dimethylamino)-3-(dimethyliminio)-3H-xanthen-9-yl)benzoate.

A short description of series [3]: Cytotoxicity assay, CellTiter-Glo cell viability. The series is classed as cell-based. The conditions noted are these: African green monkey. The protocol:
Cytotoxicity was determined by determining the effect of compounds on cell viability. Vero (kidney epithelial cells; ATCC CCL-81) monolayers were trypsinized and 5000 cells/well were seeded (10-15% confluency) into white-wall, flat bottom 96 well microwell plates (Corning) using enriched Dulbecco's Modified Eagle's Medium (Hyclone: DMEM/High Glucose) containing 10% Fetal Bovine Serum (ATCC-30-2020). Plates were incubated overnight at 37° C. in the presence of 5% CO2. Drug-free media was then replaced with media containing serial dilutions of test compound or DMSO carrier. After an additional 72 hours of incubation, viability was indirectly measured using the CellTiter-Glo® Luminescent Cell Viability (Promega) assay. Assay plates were read at peak emission wavelength of 560 nm using a EnVision® Multilabel Plate Reader (Perkin Elmer) or PHERAstar FS Multilabel reader (BMG, Cary, N.C.). […] USA, www.graphpad.com]. For each experiment, compounds were tested in duplicate. IC50 values presented are the range of two biologically independent experiments.
Background: ATP-based viability assays read luminescence as a measure of living cells.

The test system of the next series is S. aureus USA 300 ΔClpP. Kind of series: Minimal inhibitory concentration, microbroth dilution. Type of series: cell-based, Staphylococcus aureus. The conditions noted are these: ClpP inactivated strain. The protocol:
Minimal inhibitory concentrations (“MICs”) were determined using the microbroth dilution method according to Clinical Laboratory Standards Institute (CLSI; National, C.F. C. L. S., Methods for Dilution Antimicrobial Susceptibility Tests for Bacteria Grow aerobically-Seventh Edition: Approved Standard M7-A7, CLSI, Wayne, Pa., USA, 2008) and were read by visual inspection. Two fold serial dilutions of test compound in 100 μL of the appropriate broth media were first prepared in 96-well round bottom microtiter plates (Nalgene Nunc International, Rochester, N.Y., USA). An equivalent volume (100 μL) of bacterial broth inocula containing approximately 10^5 bacterial cfu/mL was added to each well to give final concentrations of test compound starting at 200 μM. The plates were then incubated aerobically at 37° C. All strains were incubated overnight. After incubations, in all cases the MIC was recorded as the lowest concentration of drug that prevented bacterial growth. The bacterial strains for which MIC was determined as described in Table 4.

The subject of another series is S. pneumoniae R6. The series is described as above. The series is classed as cell-based. The protocol:
Minimal inhibitory concentrations (“MICs”) were determined using the microbroth dilution method according to Clinical Laboratory Standards Institute (CLSI; National, C.F. C. L. S., Methods for Dilution Antimicrobial Susceptibility Tests for Bacteria Grow aerobically-Seventh Edition: Approved Standard M7-A7, CLSI, Wayne, Pa., USA, 2008) and were read by visual inspection. Two fold serial dilutions of test compound in 100 μL of the appropriate broth media were first prepared in 96-well round bottom microtiter plates (Nalgene Nunc International, Rochester, N.Y., USA). […] The plates were then incubated aerobically at 37° C. All strains were incubated overnight. After incubations, in all cases the MIC was recorded as the lowest concentration of drug that prevented bacterial growth. The bacterial strains for which MIC was determined as described in Table 4.

[4] abbreviates: Streptococcus pneumoniae, R6; read-out: Minimal Inhibitory Concentration S. pneumoniae R6.

T1 sequence (Q2G036 whole entry): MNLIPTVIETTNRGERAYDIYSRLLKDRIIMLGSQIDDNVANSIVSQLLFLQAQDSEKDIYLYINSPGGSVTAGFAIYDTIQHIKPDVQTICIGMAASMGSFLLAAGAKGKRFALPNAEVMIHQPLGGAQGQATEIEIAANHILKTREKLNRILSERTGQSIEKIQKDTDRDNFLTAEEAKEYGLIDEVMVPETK

As to `C[C@@H]1NC(=O)[C@H](C)N(C)C(=O)C2CCCN2C(=O)[C@@H](NC(=O)[C@H](Cc2cc(F)cc(F)c2)NC(=O)Nc2ccc(OC(F)(F)F)cc2)[C@H](C)OC(=O)C2CCCN2C1=O` (stereo partly drawn) [Compound 27, (2S)-3-(3,5-Difluorophenyl)-N-((6S,9S,11aS,17S,18S)-6,9,10,18-Tetramethyl-5,8,11,16,20-Pentaoxohexadecahydro-1H,5H,16H-Dipyrrolo[2,1-C:2′,1′-L][1]Oxa[4,7,10,13]Tetraazacyclohexadecin-17-Yl)-2-(3-(4-(Trifluoromethoxy)Phenyl)Ureido)Propanamide], the EC50 at Sa-ClpP [1] (read-out: ClpP Activation EC50 (converted)) was 0.31 ± 0.01 µM. Moreover, the IC50 on Sa-ClpP [2] (1 μM Sa-ClpP, 50 nM FP probe ADEP 2591, read-out: ADEP Displacement IC50) stood at 7.7 ± 0.2 µM. In series [3], half-maximal inhibition (IC50 at 72 h) was put at 10.5 ± 1.4 µM. In addition, the “Minimal Inhibitory Concentration S. aureus USA 300 ΔClpP” value with S. aureus USA 300 ΔClpP was 100 µM. Further, the MIC in the series with S. pneumoniae R6 (setting [4]) is 0.058 µM (≈ 0.0486 µg/mL).

As to `C[C@H]1CC2C(=O)O[C@@H](C)[C@H](NC(=O)[C@H](Cc3cc(F)cc(F)c3)NC(=O)Nc3ccc(OC(F)(F)F)cc3)C(=O)N3CCCC3C(=O)N(C)[C@@H](C)C(=O)N[C@@H](C)C(=O)N2C1` (stereo partly drawn) [Compound 28, (2S)-3-(3,5-Difluorophenyl)-N-((2S,6S,9S,11aS,17S,18S)-2,6,9,10,18-Pentamethyl-5,8,11,16,20-Pentaoxohexadecahydro-1H,5H,16H-Dipyrrolo[2,1-C:2′,1′-L][1]Oxa 1[4,7,10,13]Tetraazacyclohexadecin-17-Yl)-2-(3-(4-(Trifluoromethoxy)Phenyl)Ureido)Propanamide], on Sa-ClpP [1], the EC50 was determined as 0.19 ± 0.01 µM. For the same compound, the IC50 at Sa-ClpP [2] was found to be 5.6 ± 0.2 µM. The compound also had an IC50 at 72 h in series [3] of 16.1 ± 2.4 µM. Further, the MIC in the series on S. pneumoniae R6 (setting [4]) was 0.029 µM (≈ 0.0247 µg/mL).

As to `CCc1ccc(NC(=O)N[C@@H](Cc2cc(F)cc(F)c2)C(=O)N[C@@H]2C(=O)N3CCCC3C(=O)N(C)[C@@H](C)C(=O)N[C@@H](C)C(=O)N3CCCC3C(=O)O[C@H]2C)cc1` (stereo partly drawn) [Compound 29, (2S)-3-(3,5-Difluorophenyl)-2-(3-(4-Ethylphenyl)Ureido)-N-((6S,9S,11aS,17S,18S)-6,9,10,18-Tetramethyl-5,8,11,16,20-Pentaoxohexadecahydro-1H,5H,16H-Dipyrrolo[2,1-C:2′,1′-L][1]Oxa[4,7,10,13]Tetraazacyclohexadecin-17-Yl)Propanamide], a half-maximal effect on Sa-ClpP [1] (EC50) was put at 0.25 ± 0.02 µM. The compound also came in with an IC50 at Sa-ClpP [2] of 5.9 ± 0.2 µM. Moreover, it took 26.8 ± 1.3 µM to reach half-maximal inhibition in series [3] (IC50 at 72 h). Further, the “Minimal Inhibitory Concentration S. aureus USA 300 ΔClpP” value in the series on S. aureus USA 300 ΔClpP amounted to 100 µM. In addition, in the series on S. pneumoniae R6 (setting [4]), the MIC came to 0.031 µM (≈ 0.0242 µg/mL).

`CCc1ccc(NC(=O)N[C@@H](Cc2cc(F)cc(F)c2)C(=O)N[C@@H]2C(=O)N3CCCC3C(=O)N(C)[C@@H](C)C(=O)N[C@@H](C)C(=O)N3C[C@@H](C)CC3C(=O)O[C@H]2C)cc1` (stereo partly drawn) [Compound 30, (S)-3-(3,5-Difluorophenyl)-2-(3-(4-Ethylphenyl)Ureido)-N-((2S,6S,9S,11aS,17S,18S,20aS)-2,6,9,10,18-Pentamethyl-5,8,11,16,20-Pentaoxohexadecahydro-1H,5H,16H-Dipyrrolo[2,1-C:2′,1′-L][1]Oxa[4,7,10,13]Tetraazacyclohexadecin-17-Yl)Propanamide] displayed an EC50 at Sa-ClpP [1] of 0.43 ± 0.02 µM. The same compound came in with an IC50 on Sa-ClpP [2] of 4 ± 0.1 µM. In series [3], this compound returned an IC50 at 72 h of 28.8 ± 3.7 µM. Besides, in the series with S. aureus USA 300 ΔClpP, the “Minimal Inhibitory Concentration S. aureus USA 300 ΔClpP” value was determined as 50 µM. In addition, in the series with S. pneumoniae R6 (setting [4]), the MIC is 0.008 µM (≈ 0.00637 µg/mL).

As to `C[C@H]1CC2C(=O)O[C@@H](C)[C@H](NC(=O)[C@H](Cc3cc(F)cc(F)c3)NC(=O)Nc3ccc(OC(F)(F)F)cc3)C(=O)N3C[C@H](O)CC3C(=O)N(C)[C@@H](C)C(=O)N[C@@H](C)C(=O)N2C1` (stereo partly drawn) [Compound 32, (S)-3-(3,5-Difluorophenyl)-N-((2S,6S,9S,11aS,13R,17S,18S,20aS)-13-Hydroxy-2,6,9,10,18-Pentamethyl-5,8,11,16,20-Pentaoxohexadecahydro-1H,5H,16H-Dipyrrolo[2,1-C:2′,1′-L][1]Oxa[4,7,10,13]Tetraazacyclohexadecin-17-Yl)-2-(3-(4-(Trifluoromethoxy)Phenyl)Ureido)Propanamide], the EC50 at Sa-ClpP [1] amounted to 0.4 ± 0.01 µM. Further, the IC50 at Sa-ClpP [2] turned out to be 7 ± 0.4 µM. Further, in series [3], the IC50 at 72 h stood at 28.3 ± 0.6 µM. Besides, the “Minimal Inhibitory Concentration S. aureus USA 300 ΔClpP” value with S. aureus USA 300 ΔClpP was found to be 100 µM. The MIC with S. pneumoniae R6 (setting [4]) was 0.049 µM (≈ 0.0425 µg/mL).

Consider `CN[C@@H]1[C@H](O)[C@H](NC)[C@H]2O[C@@]3(O)C(=O)C[C@@H](C)O[C@H]3O[C@@H]2[C@H]1O` [Spectinomycin, spectinomycin, reference compound], for which the “Minimal Inhibitory Concentration S. aureus USA 300 ΔClpP” value in the series with S. aureus USA 300 ΔClpP was found to be 25 µM. For the same compound, the MIC with S. pneumoniae R6 (Streptococcus pneumoniae, R6, read-out: Minimal Inhibitory Concentration S. pneumoniae R6) stood at 6.3 µM (≈ 2.09 µg/mL).

These data come from patent US9879050B2, “Substituted urea depsipeptide analogs as activators of the CLPP endopeptidase” (priority 2013, dated 2018).
